Tests used:
[1] = biological target: T1, Mitogen-activated protein kinase 14 (Homo sapiens, UniProt Q16539); assay: Inhibition of p38alpha by Cherenkov counting
[2] = biological target: T2, Casein kinase I isoform delta (Homo sapiens, UniProt P48730); assay: Inhibition of GST-fused human full length CK1delta expressed in Escherichia coli at 1 uM
Target sequence in this assay (P48730 whole entry, looked up, the tested form may be a part, canonical isoform): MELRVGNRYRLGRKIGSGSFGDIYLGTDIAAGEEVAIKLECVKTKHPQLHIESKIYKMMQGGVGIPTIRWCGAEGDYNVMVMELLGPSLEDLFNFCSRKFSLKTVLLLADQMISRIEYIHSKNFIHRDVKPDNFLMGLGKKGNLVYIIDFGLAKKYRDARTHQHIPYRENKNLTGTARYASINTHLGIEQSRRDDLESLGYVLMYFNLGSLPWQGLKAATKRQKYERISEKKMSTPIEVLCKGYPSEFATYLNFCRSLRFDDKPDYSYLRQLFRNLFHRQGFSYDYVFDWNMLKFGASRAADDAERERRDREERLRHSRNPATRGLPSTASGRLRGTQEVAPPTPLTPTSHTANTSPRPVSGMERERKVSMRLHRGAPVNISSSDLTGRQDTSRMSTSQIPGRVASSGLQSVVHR

[3] = Cell cycle arrest in human AC1-M88 cells assessed as accumulation at G1 phase at 3.32 uM after 48 hrs by propidium iodide staining-based FACS analysis; assay type: functional
[4] = Cell cycle arrest in human AC1-M88 cells assessed as accumulation at G2 phase at 3.32 uM after 48 hrs by propidium iodide staining-based FACS analysis; assay type: functional
[5] = biological target: T2, Casein kinase I isoform delta; assay: Inhibition of recombinant CK1delta kinase domain by Cherenkov counting
Target sequence in this assay (P48730 whole entry, the tested form may be a part, canonical isoform): as the sequence (P48730 whole entry, looked up, the tested form may be a part, canonical isoform) above

[6] = biological target: T3, Casein kinase I isoform delta (Rattus norvegicus, UniProt Q06486); assay: Inhibition of GST-fused rat CK1delta by Cherenkov counting in presence of 20 uM ATP
[7] = Cell cycle arrest in human AC1-M88 cells assessed as accumulation at subG1 phase at 3.32 uM after 48 hrs by propidium iodide staining-based FACS analysis; assay type: functional
[8] = Cell cycle arrest in human AC1-M88 cells assessed as accumulation at S phase at 3.32 uM after 48 hrs by propidium iodide staining-based FACS analysis; assay type: functional
[9] = biological target: T3, Casein kinase I isoform delta
[10] = biological target: T1, Mitogen-activated protein kinase 14; details: 10 uM
[11] = biological target: Casein kinase I isoform delta (Oryctolagus cuniculus, UniProt P81123); assay: Inhibition of rabbit skeletal muscle CK1delta by liquid scintillation counting
[12] = biological target: T2, Casein kinase I isoform delta; assay: Inhibition of GST-fused human full length CK1delta expressed in Escherichia coli at 25 uM
Target sequence in this assay (P48730 whole entry, looked up, the tested form may be a part, canonical isoform): as above

[13] = biological target: T2, Casein kinase I isoform delta; assay: Inhibition of human CK1delta
Target sequence in this assay (P48730 whole entry, the tested form may be a part, canonical isoform): as the sequence (P48730 whole entry, looked up, the tested form may be a part, canonical isoform) above

T3 sequence (Q06486 whole entry, the tested form may be a part, canonical isoform): as the sequence (P48730 whole entry, looked up, the tested form may be a part, canonical isoform) above, with I381V counted along it
T1 sequence (Q16539 whole entry, the tested form may be a part, canonical isoform): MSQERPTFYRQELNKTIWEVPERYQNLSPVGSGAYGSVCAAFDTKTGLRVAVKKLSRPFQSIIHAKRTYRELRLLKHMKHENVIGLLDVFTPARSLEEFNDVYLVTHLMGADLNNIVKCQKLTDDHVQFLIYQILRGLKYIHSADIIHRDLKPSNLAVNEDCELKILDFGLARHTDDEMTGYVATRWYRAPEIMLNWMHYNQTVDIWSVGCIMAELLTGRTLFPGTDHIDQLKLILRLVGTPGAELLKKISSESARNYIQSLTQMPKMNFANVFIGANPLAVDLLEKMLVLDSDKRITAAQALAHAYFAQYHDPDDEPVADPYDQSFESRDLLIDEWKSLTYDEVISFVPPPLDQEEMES
Chain of Casein kinase I isoform delta (Oryctolagus cuniculus, UniProt P81123) (P81123 whole entry, the tested form may be a part, canonical isoform): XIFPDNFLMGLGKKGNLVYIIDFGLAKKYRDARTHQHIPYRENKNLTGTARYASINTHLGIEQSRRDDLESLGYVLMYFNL

| Compound | IC50 [1] | IC50 [5] | IC50 [6] | further results |
| --- | --- | --- | --- | --- |
| CC(C)c1onc(-c2ccc(F)cc2)c1-c1ccnc(N[C@H](C)c2ccccc2)c1 | 450 nM | – | – | – |
| C[S+]([O-])c1ccc(-c2nc(-c3ccc(F)cc3)c(-c3ccncc3)[nH]2)cc1 (centres undefined) | – | – | – | inhibition [2]: 92% |
| COc1ccc(/C=C/C(=O)Nc2cc(-c3c(-c4ccc(F)cc4)noc3C(C)C)ccn2)c(OC)c1 | 2520 nM | 33 nM | 47 nM | Activity [3]: 33%; Activity [4]: 14.8%; Activity [7]: 34.4%; Activity [8]: 14.8% |
| CC(=O)Nc1cc(-c2c(-c3ccc(F)cc3)noc2C(C)C)ccn1 | 300 nM | 700 nM | 330 nM | – |
| Oc1ccc(-c2nc(-c3ccc(F)cc3)c(-c3ccncc3)[nH]2)cc1 | – | – | – | inhibition [2]: 79% |
| CC(C)c1onc(-c2ccc(F)cc2)c1-c1ccnc(NC2CCOCC2)c1 | 60 nM | 2500 nM | – | – |
| CC(C)c1onc(-c2ccc(F)cc2)c1-c1ccnc(NC(=O)Cc2ccc(F)cc2)c1 | 1560 nM | 110 nM | 90 nM | – |
| NC(=O)c1ccc(-c2nc(-c3ccc4c(c3)OCCO4)c(-c3ccccn3)[nH]2)cc1 | – | – | – | IC50 [9]: 300 nM; inhibition [10]: 62% |
| CCC(C)Nc1cc(-c2c(-c3ccc(F)cc3)noc2C(C)C)ccn1 (centres undefined) | 30 nM | – | – | – |
| NCCNS(=O)(=O)c1ccc(Cl)c2ccncc12 | – | – | – | IC50 [11]: 10 µM; inhibition [12]: 88% |
| CC(C)c1onc(-c2ccc(F)cc2)c1-c1ccnc(N[C@@H](C)c2ccccc2)c1 | 6 nM | 1600 nM | – | – |
| COc1cc(OC)c(C=C2C(O)=Nc3ccccc32)c(OC)c1 [IC261] | – | – | – | IC50 [13]: 1000 nM |
| CC(Oc1ccccc1)C(=O)Nc1cc(-c2c(-c3ccc(F)cc3)noc2C(C)C)ccn1 (racemic) | 890 nM | 820 nM | 340 nM | – |
